The test system of series [1] is chorionic allantoic membrane (CAM). Kind of series: CAM assay of deoxy sugar-loaded biomaterials (in ovo, implanted day 8, scored day 14). It is filed as in vivo, chicken (Gallus domesticus). As to the method:
Fertilized chicken (Gallus domesticus) eggs were purchased from Big Bird (Raiwind road, Lahore, Pakistan) and incubated at 37° C. from day 2 of fertilization until day 8 in a humidified egg incubator (HHD, 435, China). At day 8, a square window (1 cm^2) was cut into the shell and removed, and a 2 cm^2 piece of the electrospun scaffold or hydrogels (16% PCL electrospun scaffold/CS/PVA hydrogel/CS/collagen hydrogels) placed onto the CAM. Each egg was implanted with one scaffold or hydrogel only.
The shell window was closed with parafilm (Bemis Flexible Packaging, USA) and sealed with adhesive tape. After implantation, eggs were placed again at 37° C. in a 40% humidified incubator until day 14. At day 14, biomaterials were retrieved and the eggs were sacrificed. Angiogenesis was quantified by taking light microscope pictures just before scaffold retrieval and then blindly scored by four assessors using histological images of the retrieved materials. The number of implanted and survived eggs is given in the caption of respective CAM assay figures.
D and L isomers of three-deoxysugars (ribose, fucose and rhamnose) were loaded onto the porous freeze gelated triethyl orthoformate (4%) covalently cross-linked chitosan/collagen (1:1) hydrogels. The hydrogels were soaked in an aqueous solution of sugars (1 mg/ml) and were further lyophilized (freeze dried) to produce porous membranes. As for the electrospun scaffold, the hydrogels were grafted into the fertilized eggs at day 8 and after day 14 the eggs were sacrificed and the effect of sugars on angiogenesis was investigated.

The test system of series [2] is full-thickness wounds (20 mm). Kind of series: Full-thickness excisional rat wound model. It is filed as in vivo, male Sprague-Dawley (SD) rats. As to the method: For in vivo experiments, 20 mm diameter and 1.2 mm thickness circles of hydrogels were prepared. These samples were sterilized using ethanol (70%) solution, air dried and equilibrated in PBS briefly before placing on the wound. For animal trials, male Sprague-Dawley (SD) rats weighing 140-170 g were used in the study. The animals had free access to food and water and were kept in the animal house facility of the Centre of Excellence in Molecular Biology (CEMB), Lahore. All animals were treated according to procedures approved by the Institutional Animal Ethics Committee at CEMB, Lahore, Pakistan. Animals were anesthetized with ketamine (100 mg/kg body weight) and xylazine (10 mg/kg body weight) and then the fur from the dorsal side was removed with a hair trimmer (Dingling professional hair clipper, RF-608, China). The backs of the rats were completely shaved for adhesive tape fixation and dressing. After shaving, the backs were cleaned with ethanol and then they were transferred onto a clean sterilized table and three circular shaped wounds were created by removing skin at three marked areas with the help of surgical scissors (Noorani Surgical Medical Supplies, Pakistan). Immediately followed the excision process, one of these wounds was covered with sterilized, 2-deoxy-D-ribose-loaded (using 70% ethanol) membrane circles and the other was covered with the same material membranes but without any 2-deoxy-D-ribose. Both the implanted membranes were sutured in position using sterile braided silk sutures (Mersilk, diameter 220 microns). The scaffolds were covered with adhesive plaster (Mepore, Sweden), further dressed with cotton gauze and finally secured with white surgical adhesive tape (Nitto, Japan) to prevent damage from self-grooming. One of these wounds was kept open and covered with dressing only (Mepore, Sweden) to serve as a negative control.
Surgical dressings were removed after three days of membrane implantation. On days 0, 3, 9, 11, 14 and 17 post-wounding, the wounds were measured and photographed. The wound areas were quantified using Image j software. By the end of experiments, on day 17, rats were euthanized with an overdose of anaesthesia and tissue sections from Implantation sites of normal, sham, control and 2-deoxy-D-ribose-loaded scaffold treated groups were removed. The samples were fixed in 3.7% paraformaldehyde (Sigma-Aldrich, USA) solution for 24 hours at room temperature. They were dehydrated using various concentrations of ethanol and water from 70% to 100% and paraffin blocks were made.
Sections of 6 μm thick were cut from the paraffin embedded samples with a microtome (Leica TP 1020 Automatic Tissue Processor) and placed on Superfrost® plus slides (Menzel-Gläser, Denmark). Conventional Haematoxylin and Eosin (H&E) staining and Gouldner's trichrome staining was performed (Yar et al., International Journal of Polymeric Materials and Polymeric Biomaterials. 2016) before mounting in DPX mounting medium (Fisher Scientific) with a coverslip.
For immunohistochemistry, 6 μm sections were processed with a mouse/rabbit specific HRP/DAB (ABC) Detection IHC Kit (Abcam). After rehydration, antigen retrieval and protein blocking steps, the sections were incubated with 3 different monoclonal antibodies (rabbit anti-CD34 (Abcam) 1:1000, mouse anti-CD80 (Santa Cruz) 1:100 and mouse anti-CD163 (AbD Serotec) 1:300) for 2 hours diluted in 1% BSA (Sigma-Aldrich). This was followed by 10 min incubation with a secondary biotinylated goat anti-polyvalent antibody (Abcam Detection IHC Kit). After incubation with an avidin and biotinylated horseradish peroxidase, the target proteins were visualized by incubation in peroxidase substrate and DAB chromogen (Abcam Detection IHC Kit). Samples were then counterstained with haematoxylin, dehydrated, and mounted as per H&E protocol. Controls consisted of samples incubated without primary and secondary antibodies, or incubated only with secondary antibodies. […]

The nature of series [3]: E2 and 2dDR release from PHBV scaffolds in PBS. The series is classed as physicochemical. The note with it: by 7 days. As to the method:
10% (w/w) PHBV solution loaded was prepared prior to electrospinning. 1 g of PHBV granules (Goodfellow, London, UK) were dissolved in 1 g of methanol (Fisher Scientific, Massachusetts, USA) and 8 g of DCM (Fisher Scientific, Massachusetts, USA) in a fume hood. Four 10% PHBV solutions were prepared prior to addition of substances. Finally, 25 mg E2, 50 mg of E2, 250 mg of 2dDR and 500 mg of 2dDR were then added to each solution per 1 g of PHBV. The mixtures were magnetically stirred overnight.
Scaffolds were cut into pieces so to fit into an 6-well plate, weighed and submerged in 4 ml of PBS. The E2 and 2dDR concentrations released from each group (25 mg E2, 50 mg E2, 250 mg 2dDR, 500 mg 2dDR) were measured […] using a UV-VIS spectrophotometer (Thermo Fischer Evolution 220, Massachusetts, USA) at 238 nm for 2dDR and 220 nm for E2. Absorbance values were converted into concentrations using a standard curve of known concentrations of E2 and 2dDR.

[4] abbreviates: 17 days, loaded CS/collagen scaffold.

For the compound `O=CC[C@H](O)[C@H](O)CO` [2-deoxy-D-ribose], the angiogenic response entry in series [1] (loaded (1 mg/ml) in cross-linked chitosan/collagen hydrogels) is “strongly angiogenic”. The “angiogenesis compared to the control material” value in series [1] (loaded in chitosan/PVA triethyl orthoformate cross-linked hydrogels) is given as “promoted angiogenesis”. Besides, the “angiogenic potential (new blood vessels)” value in series [1] (loaded in electrospun PCL fibers) is “growth of extensive new blood vessels under the material”. Moreover, in series [2] (setting [4]), the “epithelium and hair follicles (Goldner's trichrome)” value was “epithelium and hair follicles already formed”; the “wound healing by histology (H&E)” value was “essentially complete”. In series [2] (added to chitosan/collagen hydrogel), the “vascularisation (staining for CD34 positive cells)” value is “increase in vascularisation”. In series [2] (day 3, loaded CS/collagen scaffold), the “attachment of scaffold to the surrounding tissues” value was “very much attached to the surrounding tissues”. The wound area entry in series [2] (day 9, loaded CS/collagen hydrogel) is reported as “around 50%”. In series [2] (day 11, loaded CS/collagen hydrogel), the wound area healed entry is on record as “more than 50%”. Further, the wound closure result in series [2] (day 17, loaded CS/collagen hydrogel) is reported as “completely closed”. Besides, in series [2] (loaded in CS/collagen hydrogel), the wound healing entry is listed as “accelerated”. In addition, the “release from the scaffolds, of the amount present in the polymer solution” value in series [3] (250 mg 2dDR per 1 g PHBV scaffold) stood at 81.3%. Also, in series [3] (500 mg 2dDR per 1 g PHBV scaffold), the “release from the scaffolds, of the amount present in the polymer solution” value came out at 86.5%.

The values are drawn from patent US20250099486A1, “WOUND HEALING MEDICAMENT” (The University of Sheffield, priority 2017, published 2025).
